# Experimental data published in article PMC11996873, “Asparagine drives immune evasion in bladder cancer via RIG-I stability and type I IFN signaling” (The Journal of Clinical Investigation, 2025).
# Target: T1, RIG-I (Homo sapiens, UniProt O95786)
# T1 construct: gene RIGI
# T1 sequence (O95786 1-925): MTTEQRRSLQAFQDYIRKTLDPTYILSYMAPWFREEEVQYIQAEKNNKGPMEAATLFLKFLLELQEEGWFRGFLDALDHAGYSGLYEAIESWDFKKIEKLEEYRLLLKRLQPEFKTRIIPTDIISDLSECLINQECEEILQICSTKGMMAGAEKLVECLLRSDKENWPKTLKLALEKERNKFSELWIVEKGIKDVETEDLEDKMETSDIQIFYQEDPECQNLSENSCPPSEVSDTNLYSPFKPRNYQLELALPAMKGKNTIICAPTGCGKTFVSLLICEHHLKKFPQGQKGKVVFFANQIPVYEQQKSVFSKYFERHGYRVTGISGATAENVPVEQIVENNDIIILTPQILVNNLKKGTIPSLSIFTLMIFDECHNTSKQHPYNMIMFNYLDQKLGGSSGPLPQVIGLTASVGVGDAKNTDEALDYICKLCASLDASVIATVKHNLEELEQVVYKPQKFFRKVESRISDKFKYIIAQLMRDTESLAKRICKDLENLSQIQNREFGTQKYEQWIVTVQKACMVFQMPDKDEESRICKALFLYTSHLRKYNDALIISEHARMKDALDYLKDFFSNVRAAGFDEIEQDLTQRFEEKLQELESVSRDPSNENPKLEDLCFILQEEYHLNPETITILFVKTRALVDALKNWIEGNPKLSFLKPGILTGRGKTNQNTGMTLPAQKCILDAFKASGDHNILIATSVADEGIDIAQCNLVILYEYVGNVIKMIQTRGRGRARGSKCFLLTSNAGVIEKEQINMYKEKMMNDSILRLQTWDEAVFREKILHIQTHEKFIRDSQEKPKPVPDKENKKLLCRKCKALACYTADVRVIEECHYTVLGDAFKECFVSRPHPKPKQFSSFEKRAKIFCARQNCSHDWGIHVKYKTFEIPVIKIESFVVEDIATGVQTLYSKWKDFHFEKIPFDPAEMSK
# Assay: microscale thermophoresis (Monolith NT.[…])
# Format: binding
smiles,measurement,value
NC(=O)C[C@H](N)C(=O)O [asparagine],Kd,303 µM
